How the values were obtained:
[1] = Structural stability to heating conditions, dye bath analysis via HPLC; assay type: physicochemical; conditions: heating conditions utilized in pad/heat dyeing; data not shown
S. aureus = experiment: MIC/MBC of native and heated Cipro/Oflox (heat stability); assay type: cell-based; conditions: Staphylococcus aureus, n=6; for MIC: 10^6 S. aureus/ml, TSB; for MBC: broth backplated on agar
Experimental: An inoculum of S. aureus was diluted to obtain a bacterial concentration of 10^6 S. aureus/ml. […] V. Mosby, St. Louis, 1986]. Antibiotic concentrations in the assay were […].

[2] = antibiotic heated to 135° C. for 1 hour (dye bath conditions), 24 hours

## CC1COc2c(N3CCN(C)CC3)c(F)cc3c(=O)c(C(=O)O)cn1c23 (stereo not shown) [Oflox, Ofloxacin]
[1]
  structural stability upon dye bath analysis via HPLC: no structural degradation
S. aureus; [2]
  MIC: 0.78 µM
  MBC: 9.5 µM
S. aureus; native antibiotic, turbidity after 24 hours
  MIC: 0.78 µM
S. aureus; native antibiotic, 24 hours
  MBC: 9.5 µM

## O=C(O)c1cn(C2CC2)c2cc(N3CCNCC3)c(F)cc2c1=O [Cipro, Ciprofloxacin]
S. aureus; [2]
  MBC: 6.5 µM
S. aureus; native antibiotic, 24 hours
  MBC: 6.5 µM
